Reference: patent publication US20140148484A1, “PYRAZOLE COMPOUNDS FOR TREATING HAIRLOSS” (Boehringer Ingelheim International GmbH, priority 2012, published 2014)
pKi: −log10 of the molar value.

Target: T1, human CRTH2 receptor (Homo sapiens, UniProt Q9Y5Y4)
T1 construct: host or cells: CHO-K1 (CHO-K1-hCRTH2 cells); membranes prepared in house from the purchased cell line
T1 sequence (Q9Y5Y4 1-395): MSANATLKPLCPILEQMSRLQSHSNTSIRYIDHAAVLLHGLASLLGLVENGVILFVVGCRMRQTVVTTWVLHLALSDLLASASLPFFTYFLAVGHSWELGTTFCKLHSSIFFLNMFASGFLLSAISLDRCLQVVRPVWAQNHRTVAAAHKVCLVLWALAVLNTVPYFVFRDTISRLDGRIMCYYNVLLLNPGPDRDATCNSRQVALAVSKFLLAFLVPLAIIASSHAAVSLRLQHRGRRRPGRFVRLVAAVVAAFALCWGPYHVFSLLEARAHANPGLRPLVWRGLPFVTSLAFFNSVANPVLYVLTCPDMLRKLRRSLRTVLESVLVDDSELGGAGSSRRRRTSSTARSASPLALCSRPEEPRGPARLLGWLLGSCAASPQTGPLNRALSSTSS
Test: Human CRTH2 receptor membrane radioligand binding assay (SPA, [3H]-PGD2)
Conditions: displacement of [3H]-PGD2 (1 nM) from CHO-K1-hCRTH2 cell membranes, 3 h room temperature
Procedure: Preparation of Human CRTH2 Receptor Membranes and Radioligand Binding Assay
The binding of CRTH2 antagonists is determined using membranes prepared from Chinese hamster ovary cells (CHO-K1 cells) transfected with the human CRTH2 receptor (CHO-K1-hCRTH2 cells, Perkin Elmer, Cat No ES-561-C). To produce cell membranes the CHO-K1-hCRTH2 cells are cultured in suspension in CHO SFMII medium supplemented with 400 μg/ml G418. The cells are harvested by centrifugation at 300 g for 10 min at room temperature. The cell pellet is resuspended in Phosphate Buffer Saline (PBS) including a protease inhibitor mix (Complete, Roche) and adjusted to a concentration of 10E7 cells/ml. The CHO-K1-hCRTH2 cells are disrupted by nitrogen […] to obtain the membrane preparation. Cell debris is removed by centrifugation (500 g at 4° C., 30 min) and the supernatant is transferred into fresh tubes followed by a second centrifugation at 40000 g for 1 h at 4° C. to sediment the membranes. The membranes are suspended in SPA incubation buffer (50 mM Tris HCl, 10 mM MgCl2, 150 mM NaCl, 1 mM EDTA, pH 7.4) without bovine serum albumin, homogenized by passing through a single use needle (Terumo, 23G×1″), and stored in aliquots at −80° C.
The CRTH2 receptor binding assay is performed in a scintillation proximity assay (SPA) format with the radioligand [^3H]-PGD2 (Perkin Elmer, NET616000MC). CHO-K1-hCRTH2 cell membranes are again homogenized by passing through a single use needle (Terumo, 23G×1″) and diluted in SPA incubation buffer in suitable concentrations (0.5-10 μg protein/well). The SPA assay is set up in 96 well microtiter plates (Perkin Elmer, CatNo. 6005040) in SPA incubation buffer with a final volume of 200 μl per well and final concentration of 50 mM Tris-HCl, 10 mM MgCl2, 150 mM NaCl, 1 mM EDTA pH 7.4, 0.1% bovine serum albumin). The SPA assay mixture contains 60 μl of the membrane suspension, 80 μl of Wheat Germ Agglutinin coated PVT beads (GE Healthcare, RPNQ-0001, 0.3 mg/well), 40 μl of [3H]-PGD2 diluted in SPA buffer to a final concentration of 1 nM (50 000 dpm) and 20 μl of the test compound (dissolved in dimethylsulfoxid). The SPA assay mixture is incubated for 3 h at room temperature. Bound radioactivity is determined with a scintillation counter (Micro Beta Trilux, Wallac).
The binding of [^3H]-PGD2 to CHO-K1-hCRTH2 cell membranes is determined in the absence (total binding, Bo) and presence (non-specific binding, NSB) of unlabelled PGD2 (1 μM, Cayman Chemical, Cat No 12010) or a reference CRTH2 antagonist (10 μM CAY10471, Cayman Chemical, Cat No 10006735).
Determination of the affinity of a test compound is calculated by subtraction of the non-specific binding (NSB) from the total binding (Bo) or the binding in the presence of the test compound (B) at a given compound concentration. […] The Bo−NSB value is set to 0% inhibition.

pKi	Structure (SMILES)
9.10	Cc1nn(Cc2ccc(NC(=O)c3ccc(C(F)(F)F)cc3)cc2Cl)c(C)c1CC(=O)O [Example 7.8]
8.60	Cc1nn(Cc2ccc(NC(=O)CCc3ccccc3)cc2Cl)c(C)c1CC(=O)O [Example 7.9]
8.26	Cc1nn(Cc2ccc(NC(=O)c3ccccc3)cc2Cl)c(C)c1CC(=O)O [Example 7.10]
9.05	Cc1nn(Cc2ccc(NC(=O)/C=C/c3ccccc3)cc2Cl)c(C)c1CC(=O)O [Example 7.11]
8.33	Cc1ccc(C(=O)Nc2ccc(Cn3nc(C)c(CC(=O)O)c3C)c(Cl)c2)c(C)c1 [Example 7.12]
8.89	Cc1nn(Cc2ccc(NC(=O)c3ccc4ccccc4c3)cc2Cl)c(C)c1CC(=O)O [Example 7.13]
8.80	Cc1cc(C(F)(F)F)ccc1C(=O)Nc1ccc(Cn2nc(C)c(CC(=O)O)c2C)c(Cl)c1 [Example 7.14]
9.22	Cc1nn(Cc2ccc(NC(=O)c3ccc(Cl)c(Cl)c3)cc2Cl)c(C)c1CC(=O)O [Example 7.15]
8.46	Cc1cc(C(F)(F)F)ccc1C(=O)Nc1ccc(Cn2nc(C)c(CC(=O)O)c2C)c(F)c1 [Example 7.16]
8.96	Cc1nn(Cc2ccc(NC(=O)c3ccc(C(F)(F)F)cc3)cc2F)c(C)c1CC(=O)O [Example 7.17]
8.62	Cc1nn(Cc2ccc(NC(=O)c3ccc(Cl)c(Cl)c3)cc2F)c(C)c1CC(=O)O [Example 7.18]
8.24	Cc1cc(Cl)ccc1C(=O)Nc1ccc(Cn2nc(C)c(CC(=O)O)c2C)c(F)c1 [Example 7.19]
8.66	Cc1nn(Cc2ccc(NC(=O)c3ccc4ccccc4c3)cc2F)c(C)c1CC(=O)O [Example 7.20]
8.72	Cc1nn(Cc2ccc(NC(=O)/C=C/c3ccccc3)cc2F)c(C)c1CC(=O)O [Example 7.21]
5.78	Cc1cc(Cl)ccc1C(=O)Nc1ccc(Cn2nc(C)c(CCC(=O)O)c2C)cc1 [Example 8.1]
6.90	Cc1nn(Cc2ccc(NC(=O)c3ccc(C(F)(F)F)cc3)cc2)c(C)c1CCC(=O)O [Example 8.2]
5.42	Cc1nn(Cc2ccc(NC(=O)c3ccccc3)cc2)c(C)c1CCC(=O)O [Example 8.3]
7.58	Cc1nn(Cc2ccc(NC(=O)c3ccc(C(C)(C)C)cc3)cc2)c(C)c1CCC(=O)O [Example 8.4]
6.37	Cc1nn(Cc2ccc(NC(=O)CCc3ccccc3)cc2)c(C)c1CCC(=O)O [Example 8.5]

pKi	Structure (SMILES)
6.90	Cc1nn(Cc2ccc(NC(=O)c3ccc(Cl)c(Cl)c3)cc2)c(C)c1CCC(=O)O [Example 8.6]
6.17	Cc1cc(C(F)(F)F)ccc1C(=O)Nc1ccc(Cn2nc(C)c(CCC(=O)O)c2C)cc1 [Example 8.7]
5.83	Cc1nn(Cc2ccc(C(=O)Nc3cccc(F)c3)cc2)c(C)c1CC(=O)O [Example 9.1]
7.61	Cc1nn(Cc2ccc(C(=O)Nc3ccc(Cl)c(F)c3)cc2)c(C)c1CC(=O)O [Example 9.2]
8.06	Cc1nn(Cc2ccc(C(=O)Nc3ccc(Cl)c(Cl)c3)cc2)c(C)c1CC(=O)O [Example 9.3]
7.73	Cc1nn(Cc2ccc(C(=O)Nc3ccc(F)c(Cl)c3)cc2)c(C)c1CC(=O)O [Example 9.4]
7.86	Cc1nn(Cc2ccc(C(=O)Nc3cccc(C(F)(F)F)c3)cc2)c(C)c1CC(=O)O [Example 9.5]
8.52	Cc1nn(Cc2ccc(C(=O)Nc3ccc(Cl)c(C(F)(F)F)c3)cc2)c(C)c1CC(=O)O [Example 9.6]
8.12	Cc1ccc(NC(=O)c2ccc(Cn3nc(C)c(CC(=O)O)c3C)cc2)cc1Cl [Example 9.7]
7.51	Cc1nn(Cc2ccc(C(=O)Nc3cc(Cl)cc(Cl)c3)cc2)c(C)c1CC(=O)O [Example 9.8]
7.71	Cc1nn(Cc2ccc(C(=O)Nc3ccc(Br)c(F)c3)cc2)c(C)c1CC(=O)O [Example 9.9]
7.41	CCc1nn(Cc2ccc(C(=O)Nc3cccc(F)c3)cc2)c(CC)c1CC(=O)O [Example 9.10]
8.15	CCc1nn(Cc2ccc(C(=O)Nc3ccc(Cl)c(F)c3)cc2)c(CC)c1CC(=O)O [Example 9.11]
8.32	CCc1nn(Cc2ccc(C(=O)Nc3ccc(F)c(Cl)c3)cc2)c(CC)c1CC(=O)O [Example 9.12]
9.05	CCc1nn(Cc2ccc(C(=O)Nc3ccc(Cl)c(C(F)(F)F)c3)cc2)c(CC)c1CC(=O)O [Example 9.13]
8.51	CCc1nn(Cc2ccc(C(=O)Nc3ccc(F)c(Br)c3)cc2)c(CC)c1CC(=O)O [Example 9.14]
7.49	CC(C)(C)c1nn(Cc2ccc(C(=O)Nc3ccc(F)c(Cl)c3)cc2)c(C(C)(C)C)c1CC(=O)O [Example 9.15]
8.17	CCc1nn(Cc2ccc(C(=O)Nc3ccc(Br)c(F)c3)cc2)c(CC)c1CC(=O)O [Example 9.16]
7.46	CCc1nn(Cc2ccc(C(=O)NCc3ccc4ccccc4c3)cc2)c(CC)c1CC(=O)O [Example 9.17]

pKi	Structure (SMILES)
7.60	CCc1nn(Cc2ccc(C(=O)NCc3ccc(Cl)c(Cl)c3)cc2)c(CC)c1CC(=O)O [Example 9.18]
7.52	CCc1nn(Cc2ccc(C(=O)NCc3ccc(Cl)c(C(F)(F)F)c3)cc2)c(CC)c1CC(=O)O [Example 9.19]
7.42	CCc1nn(Cc2ccc(C(=O)NCc3ccc(C(F)(F)F)cc3)cc2)c(CC)c1CC(=O)O [Example 9.20]
8.11	CCc1nn(Cc2ccc(C(=O)N[C@H]3CC[C@H](c4ccccc4)CC3)cc2)c(CC)c1CC(=O)O [Example 9.21]
7.81	CCc1nn(Cc2ccc(C(=O)N[C@@H]3CCC[C@H](c4ccccc4)C3)cc2)c(CC)c1CC(=O)O [Example 9.22]
8.40	CCc1nn(Cc2ccc(C(=O)Nc3ccc4ccccc4n3)cc2)c(CC)c1CC(=O)O [Example 9.23]
7.31	CCc1nn(Cc2ccc(C(=O)NC3CCC(C)(C)CC3)cc2)c(CC)c1CC(=O)O [Example 9.24]
7.49	CCc1nn(Cc2ccc(C(=O)NC3CCC4CCCCC4C3)cc2)c(CC)c1CC(=O)O (stereo not drawn) [Example 9.25]
7.40	CCc1nn(Cc2ccc(C(=O)NC3CCC(C(C)(C)C)CC3)cc2)c(CC)c1CC(=O)O (stereo not drawn) [Example 9.26]
9.30	CCc1nn(Cc2ccc(C(=O)Nc3ccc(Cl)c(C(F)(F)F)c3)cc2F)c(CC)c1CC(=O)O [Example 9.27]
7.98	CCc1nn(Cc2ccc(C(=O)NCc3cc4ccccc4o3)cc2F)c(CC)c1CC(=O)O [Example 9.28]
8.59	Cc1nn(Cc2ccc(S(=O)(=O)Nc3ccc(F)cc3)cc2)c(C)c1CC(=O)O [Example 10.1]
6.13	COc1ccc(CCNS(=O)(=O)c2ccc(Cn3nc(C)c(CC(=O)O)c3C)cc2)cc1OC [Example 10.2]
7.79	CCc1nn(Cc2ccc(S(=O)(=O)Nc3ccc(C)c(Cl)c3)cc2)c(CC)c1CC(=O)O [Example 10.3]
7.67	CCc1nn(Cc2ccc(S(=O)(=O)Nc3ccc(Cl)c(Cl)c3)cc2)c(CC)c1CC(=O)O [Example 10.4]
7.56	CCc1nn(Cc2ccc(S(=O)(=O)Nc3ccc(Cl)c(F)c3)cc2)c(CC)c1CC(=O)O [Example 10.5]
7.53	Cc1nn(Cc2ccc(NC(=O)c3ccc(C(F)(F)F)cc3)cc2)c(C)c1CC(=O)NS(=O)(=O)C(C)(C)C [Example 11.1]
6.90	Cc1nn(Cc2ccc(C#Cc3ccc(C(F)(F)F)cc3)cc2)c(C)c1CC(=O)O [Example 12.1]
7.25	Cc1nn(Cc2ccc(/C=C/c3ccc(C(F)(F)F)cc3)cc2)c(C)c1CC(O)O [Example 12.2]
